Laboratory results reported in patent US8653003B2, “Pyrazol-4-yl carboxamide derivatives as microbiocides” (Syngenta Participations AG, priority 2011, dated 2014).

Legend:
Botrytis cinerea = assay: Action against Botrytis cinerea - fungal growth assay; assay type: cell-based; conditions: 0.002% active ingredient, PDB broth, 24° C., photometric after 3-4 days
Protocol: (§1) Conidia of the fungus from cryogenic storage was directly mixed into nutrient broth (PDB potato dextrose broth). After placing a (DMSO) solution of the test compounds (0.002% active ingredient) into a microtiter plate (96-well format) the nutrient broth containing the fungal spores was added. The test plates were incubated at 24° C. and the inhibition of growth was measured photometrically after 3-4 days. The activity of a compound was expressed as fungal growth inhibition (0=no growth inhibition, ratings of 80% to 99% mean good to very good inhibition, 100%=complete inhibition).

[1] = tested on: Mycosphaerella arachidis (Cercospora arachidicola [anamorph]); assay: Action against Mycosphaerella arachidis (early leaf spot of groundnut) - fungal growth assay; assay type: cell-based; conditions: 0.002% active ingredient, PDB broth, 24° C., photometric after 6-7 days
Protocol: as §1, with “storage were” for “storage was”, “broth (Pdb” for “broth (PDB”, “after 6-7” for “after 3-4”

Septoria tritici = assay: Action against Septoria tritici - fungal growth assay; assay type: cell-based; conditions: Zymoseptoria tritici; 0.002% active ingredient, PDB broth, 24° C., photometric after 72 hrs
Protocol: as §1, with “storage were” for “storage was”, “was determined” for “was measured”, “after 72 hrs.” for “after 3-4 days.”

[2] = tested on: Erysiphe graminis f. sp. tritici; assay: Action against Erysiphe graminis f. sp. tritici (wheat powdery mildew), wheat leaf segments; assay type: in vivo; conditions: Blumeria graminis, foliar, 168 h; 0.02% active ingredient sprayed on wheat leaf segments, assessed 7 days after inoculation; read-out: preventive fungicidal activity (inhibition)
Protocol: (§2) Wheat leaf segments were placed on agar in multiwell plates (24-well format) and sprayed with test solutions (0.02% active ingredient). After drying, the leaf disks were inoculated with a spore suspension of the fungus. After appropriate incubation the activity of a compound was assessed 7 days after inoculation as preventive fungicidal activity.

Puccinia recondita [3] = assay: Protective action against Puccinia recondita (brown rust) on wheat leaf segments; assay type: in vivo; conditions: foliar, 192 h, 0.02% active ingredient sprayed on wheat leaf segments, assessed 8 days after inoculation, read-out: preventive fungicidal activity (inhibition)
Protocol: as §2, with “8” for “7”

Puccinia recondita [4] = assay: Curative action against Puccinia recondita (brown rust) on wheat leaf segments; assay type: in vivo; conditions: foliar, 0.02% active ingredient sprayed one day after inoculation, assessed 8 days after inoculation, read-out: curative fungicidal activity (inhibition)
Protocol: Wheat leaf segments were placed on agar in multiwell plates (24-well format) and inoculated with a spore suspension of the fungus. One day after inoculation the leaf segments were sprayed with test solutions (0.02% active ingredient). After appropriate incubation the activity of a compound was assessed 8 days after inoculation as curative fungicidal activity.

Pyrenophora teres = assay: Action against Pyrenophora teres (net blotch) on barley leaf segments; assay type: in vivo; conditions: foliar, 96 h, 0.02% active ingredient sprayed on barley leaf segments, assessed 4 days after inoculation, read-out: preventive fungicidal activity (inhibition)
Protocol: as §2, with “Barley” for “Wheat”, “4” for “7”

Row | SMILES | inhibition at 0.002 % strength (Botrytis cinerea) [%] | inhibition at 0.002 % strength [1] [%] | inhibition at 0.002 % strength (Septoria tritici) [%] | inhibition at 0.02 % strength [2] [%] | inhibition at 0.02 % strength (Puccinia recondita [3]) [%] | inhibition at 0.02 % strength (Puccinia recondita [4]) [%] | inhibition at 0.02 % strength (Pyrenophora teres) [%] | melting point [°C]
1 | CON(C(=O)c1cn(C)nc1C(F)F)C1CCCc2ccccc21 (stereo not shown) [Compound 1.001] | ≥ 80 | ≥ 80 | ≥ 80 | ≥ 80 | ≥ 80 | ≥ 80 | ≥ 80 | 91 to 95
2 | CON(C(=O)c1cn(C)nc1C(F)F)C1CCCc2ccc(Cl)cc21 (stereo not shown) [Compound 1.003, 3-difluoromethyl-1-methyl-1H-pyrazole-4-carboxylic acid (7-chloro-1,2,3,4-tetrahydro-naphthalen-1-yl)-methoxy-amide] |  | ≥ 80 | ≥ 80 | ≥ 80 | ≥ 80 | ≥ 80 | ≥ 80 | 
3 | CON(C(=O)c1cn(C)nc1C(F)F)C1c2ccccc2CCCC1F (stereo not shown) [Compound 1.065, 3-difluoromethyl-1-methyl-1H-pyrazole-4-carboxylic acid (6-fluoro-6,7,8,9-tetrahydro-5-H-benzocyclohepten-5-yl)-methoxy-amide] | ≥ 80 | ≥ 80 | ≥ 80 | ≥ 80 | ≥ 80 | ≥ 80 | ≥ 80 | 
4 | CON(C(=O)c1cn(C)nc1C(F)F)C1CCCCc2ccc(I)cc21 (stereo not shown) [Compound 1.062, 3-difluoromethyl-1-methyl-1H-pyrazole-4-carboxylic acid (3-iodo-6,7,8,9-tetrahydro-5-H-benzocyclohepten-5-yl)-methoxy-amide] |  | ≥ 80 | ≥ 80 |  | ≥ 80 | ≥ 80 |  | 
